Test [1] deals with T1, CB1 receptor (Homo sapiens, UniProt P21554).
T1 construct: expressed in transfected cells
Description: cell-based. The essentials:
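Read-out is forskolin-driven CRE-β-gal reporter activity in stably transfected human-CB1 SK-N-MC cells, normalised to vehicle (100%); agonism lowers, inverse agonism raises signal. Values are EC50 (linear regression, multiple concentrations) or % change at one concentration.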

Test [2] deals with T2, CB2 receptor (Homo sapiens, UniProt P34972).
T2 construct: expressed in transfected cells
T2 sequence (P34972 whole entry): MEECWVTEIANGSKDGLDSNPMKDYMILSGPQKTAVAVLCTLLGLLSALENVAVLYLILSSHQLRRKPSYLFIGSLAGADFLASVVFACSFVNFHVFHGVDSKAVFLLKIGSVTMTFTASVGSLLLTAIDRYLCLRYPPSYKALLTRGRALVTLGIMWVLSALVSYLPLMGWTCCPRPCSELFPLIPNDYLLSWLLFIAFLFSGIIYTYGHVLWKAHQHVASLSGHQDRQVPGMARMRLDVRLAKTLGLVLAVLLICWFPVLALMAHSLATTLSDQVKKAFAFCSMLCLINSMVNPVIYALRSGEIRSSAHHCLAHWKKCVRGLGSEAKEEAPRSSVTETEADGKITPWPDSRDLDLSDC
Description: Functional cell-based assay, CB2 receptor mediated change in CRE β-gal expression (SK-N-MC cells). Particulars: for EC50: SK-N-MC cells. From the text:
The CB1 and CB2 receptors are G-protein coupled receptors (GPCR), which influence cell function via the Gi-protein. These receptors modulate the activity of intracellular adenylate cyclase, which in turn produces the intracellular signal messenger cyclic-AMP (cAMP).
At baseline, or during non-ligand bound conditions, these receptors are constitutively active and tonically suppress adenylate cyclase activity. The binding of an agonist causes further receptor activation and produces additional suppression of adenylate cyclase activity. The binding of an inverse agonist inhibits the constitutive activity of the receptors and results in an increase in adenylate cyclase activity.
By monitoring intracellular adenylate cyclase activity, the ability of compounds to act as agonists or inverse agonists can be determined.
Test compounds were evaluated in SK-N-MC cells which, using standard transfection procedures, were stably transfected with human cDNA for pcDNA3-CRE β-gal and pcDNA3 CB1 receptor (human) or pcDNA3 CB2 receptor (human). By expressing CRE β-gal, the cells produced β-galactosidase in response to CRE promoter activation by cAMP. Cells expressing CRE β-gal and either the human CB1 or CB2 receptor will produce less β-galactosidase when treated with a CB1/CB2 agonist and will produce more β-galactosidase when treated with a CB1/CB2 inverse agonist.
The cells were grown in 96-well plates under standard cell culture conditions at 37° C. in a 5% CO2 atmosphere and culture media (wherein the media was supplemented with 2 mM L-glutamine, […] sodium pyruvate, 10% FBS (fetal bovine serum) and antibiotics).
For cells expressing CRE β-gal and the CB2 receptor, CB2 agonists reduced β-galactosidase activity in a dose-dependent manner and CB2 inverse agonists increase β-galactosidase activity in a dose-dependent manner.
The change in forskolin induced β-galactosidase activity was determined by setting a vehicle treated cell's activity value at 100% and expressing the β-galactosidase activity measured in a corresponding compound treated cell as a percent of the vehicle treated cell activity.
The EC50 value for functional activity for compounds tested was calculated by linear regression and was obtained from studies in which varying compound concentrations were used.

Test [3] concerns the target T2, CB2 receptor. Description: Binding assay for CB2 agonists or inverse agonists (SK-N-MC membranes, [3H]-CP-55,940). Particulars: for inhibition at 0.2 µM: read-out: CB2 receptor binding percent inhibition, test concentration 0.2 μM (footnote 2); for IC50: Cannabinoid CB2 Receptor Binding IC50, calculated by linear regression from percent inhibition at various test concentrations. In short, it runs like this:
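IC50 came from percent-inhibition data over several compound concentrations, fitted by linear regression. Binding used semi-purified membranes of human CB2-transfected SK-N-MC cells, 90 min at 30 °C, pH 7.5 Tris-HCl with MgCl2, EDTA and BSA, then filtration and scintillation counting.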

Test [4] has as its target T1, CB1 receptor. Description: Binding assay for CB1 agonists or inverse agonists (SK-N-MC membranes, [3H]-CP-55,940). The note with it: for IC50: Cannabinoid CB1 Receptor Binding IC50, calculated by linear regression from percent inhibition at various test concentrations. The essentials:
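Radioligand displacement: [3H]-CP-55,940 at […], 90 min at 30° C, pH 7.5 Tris buffer with 0.5 mg/mL fatty-acid-free BSA, using semi-purified membranes of human-CB1-transfected SK-N-MC cells. Bound counts collected on GF/C filters, 10 uM WIN 55,212 for non-specific; IC50 from percent inhibition over several concentrations.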

The mark [5] stands for this setting: CB1 Receptor Functional Agonist EC50, SK-N-MC cells, forskolin induced β-galactosidase activity.
Where [6] appears, read: CB2 Receptor Functional Agonist EC50, forskolin induced β-galactosidase activity.
Where [7] appears, read: CB1 Receptor Functional Inverse Agonist EC50, forskolin induced β-galactosidase activity, SK-N-MC cells.
Setting [8] is: read-out: CB1 receptor binding percent inhibition, test concentration 0.2 μM (footnote 2).

“And” between values parts separate entries of the source, which are not always exact repeats. Equal entries are not always repeated. Where two headings read alike, the source gives them in different places.

T1 sequence (P21554 whole entry): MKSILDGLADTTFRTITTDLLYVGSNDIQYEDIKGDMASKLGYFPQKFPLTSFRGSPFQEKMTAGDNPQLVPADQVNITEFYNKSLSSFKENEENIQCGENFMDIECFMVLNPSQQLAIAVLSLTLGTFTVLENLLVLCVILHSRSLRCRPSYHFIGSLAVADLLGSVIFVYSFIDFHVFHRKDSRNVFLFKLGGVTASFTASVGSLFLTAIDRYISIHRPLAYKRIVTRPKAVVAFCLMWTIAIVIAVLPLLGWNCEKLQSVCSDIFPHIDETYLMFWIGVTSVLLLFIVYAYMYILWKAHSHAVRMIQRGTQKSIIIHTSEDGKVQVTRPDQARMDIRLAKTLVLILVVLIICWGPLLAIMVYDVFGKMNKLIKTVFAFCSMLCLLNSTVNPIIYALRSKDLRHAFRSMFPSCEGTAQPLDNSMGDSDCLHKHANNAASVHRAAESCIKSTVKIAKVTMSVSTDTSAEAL

In the case of `COC[C@@H](NC(=O)c1n[nH]c2c1CCCC[C@@H]2Cc1cccc(Cl)c1)c1ccccc1` (stereo in doubt) [Cpd 251, (8R*)-(3-chloro-benzyl)-1,4,5,6,7,8-hexahydro-cycloheptapyrazole-3-carboxylic acid [(1S)-2-methoxy-1-phenyl-ethyl]-amide], the 50% effective concentration (EC50) on CB1 receptor [1] (setting [5]) is 410 nM; at CB2 receptor [2] (setting [6]), 3 nM.

With `COC[C@@H](NC(=O)c1n[nH]c2c1CCCC[C@H]2Cc1cccc(Cl)c1)c1ccccc1` (stereo in doubt) [Cpd 252, (8S*)-(3-chloro-benzyl)-1,4,5,6,7,8-hexahydro-cycloheptapyrazole-3-carboxylic acid [(1S)-2-methoxy-1-phenyl-ethyl]-amide], the concentration for a half-maximal effect (EC50) at CB1 receptor [1] (setting [5]) is > 5000 nM; at CB2 receptor [2] (setting [6]), 19 nM.

As to `COC[C@H](NC(=O)c1n[nH]c2c1CCCC[C@H]2Cc1cccc(Cl)c1)c1ccccc1` (stereo in doubt) [Cpd 253, (8S*)-(3-chloro-benzyl)-1,4,5,6,7,8-hexahydro-cycloheptapyrazole-3-carboxylic acid [(1R)-2-methoxy-1-phenyl-ethyl]-amide], the figures for the EC50 at CB1 receptor [1] (setting [5]) and at CB2 receptor [2] (setting [6]) were > 5000 nM and 200 nM, respectively.

Take `COC[C@H](NC(=O)c1n[nH]c2c1CCCC[C@@H]2Cc1cccc(Cl)c1)c1ccccc1` (stereo in doubt) [Cpd 254, (8R*)-(3-chloro-benzyl)-1,4,5,6,7,8-hexahydro-cycloheptapyrazole-3-carboxylic acid [(1R)-2-methoxy-1-phenyl-ethyl]-amide]: the half-maximal effective concentration (EC50) at CB1 receptor [1] (setting [5]) came to 80 nM; at CB2 receptor [2] (setting [6]) it was 2 nM.

Consider `C[C@@H](NC(=O)c1n[nH]c2c1CCCC/C2=C\c1ccc(Cl)cc1)c1ccccc1` [Cpd 142, (8E)-8-(4-chloro-benzylidene)-1,4,5,6,7,8-hexahydro-cycloheptapyrazole-3-carboxylic acid [(1R)-1-phenyl-ethyl]-amide], for which, on CB2 receptor [3] (test concentration 0.2 μM (footnote 2)), the “CB2 receptor binding percent inhibition” value was “^(2)98%”. The IC50 on CB1 receptor [4] is 10 nM. At CB1 receptor [4] (read-out: CB1 receptor binding percent inhibition), the inhibition at 0.2 µM was 83%. Further, the “CB2 receptor change in functional activity” value on CB2 receptor [2] (one compound concentration, forskolin induced β-galactosidase activity) was found to be 1%.

Turning to `CC(NC(=O)c1nn(-c2ccc(Cl)cc2Cl)c2c1CCCC/C2=C\c1ccc(F)cc1)c1ccccn1` (centres unmarked) [Cpd 224, (8E)-1-(2,4-dichloro-phenyl)-8-(4-fluoro-benzylidene)-1,4,5,6,7,8-hexahydro-cycloheptapyrazole-3-carboxylic acid (1-pyridin-2-yl-ethyl)-amide], the inhibition at 0.2 µM on CB2 receptor [3] came to 4%; on CB1 receptor [4] (setting [8]), 87%. The same molecule showed a concentration for a half-maximal effect (EC50) on CB1 receptor [1] (setting [7]) of 4 nM. The IC50 at CB1 receptor [4] is 8 nM.

`C[C@@H](NC(=O)c1nn(-c2ccc(Cl)cc2Cl)c2c1CCCC/C2=C\c1ccc(F)cc1)c1ccccn1` [Cpd 225, (8E)-1-(2,4-dichloro-phenyl)-8-(4-fluoro-benzylidene)-1,4,5,6,7,8-hexahydro-cycloheptapyrazole-3-carboxylic acid [(1R)-1-pyridin-2-yl-ethyl]-amide]: the inhibition at 0.2 µM is 6% at CB2 receptor [3] and 90% at CB1 receptor [4] (setting [8]). Further, at CB2 receptor [3] (read-out: CB2 receptor binding percent inhibition, test concentration 1 μM (footnote 1)), the inhibition at 1 µM was found to be 16%. In addition, at CB1 receptor [1] (setting [7]), a half-maximal response (EC50) required 1 nM. Further, the IC50 on CB1 receptor [4] was 5 nM and 6 nM and 7 nM. At CB1 receptor [4] (test concentration 0.2 μM (footnote 2), 0.2 µM), the “CB1 receptor binding percent inhibition” value amounted to 89%. On CB1 receptor [4] (value shown is an average percent inhibition (footnote 5), concentration not given), the “CB1 receptor binding average percent inhibition” value is 96%.

Take `COc1ccc(/C=C2\CCCCc3c(C(=O)NN4CC5CCCC5C4)nn(-c4ccc(Cl)cc4Cl)c32)cc1` (centres unmarked) [Cpd 226, (8E)-1-(2,4-dichloro-phenyl)-8-(4-methoxy-benzylidene)-1,4,5,6,7,8-hexahydro-cycloheptapyrazole-3-carboxylic acid (hexahydro-cyclopenta[c]pyrrol-2-yl)-amide]: the inhibition at 0.2 µM was determined as 48% at CB2 receptor [3] and 72% on CB1 receptor [4] (setting [8]). The same molecule displayed a 50% effective concentration (EC50) at CB1 receptor [1] (setting [7]) of 3 nM. The IC50 at CB1 receptor [4] was 40 nM.

Take `COc1ccc(/C=C2\CCCCc3c(C(=O)N[C@H](C)c4ccccn4)nn(-c4ccc(Cl)cc4Cl)c32)cc1` [Cpd 227, (8E)-1-(2,4-dichloro-phenyl)-8-(4-methoxy-benzylidene)-1,4,5,6,7,8-hexahydro-cycloheptapyrazole-3-carboxylic acid [(1R)-1-pyridin-2-yl-ethyl)-amide]: the results for the inhibition at 0.2 µM at CB2 receptor [3] and on CB1 receptor [4] (setting [8]) were 19% and 90%, respectively. This molecule gave an EC50 on CB1 receptor [1] (setting [7]) of 2 nM. Besides, at CB1 receptor [4], the IC50 is 9 nM.

Consider `O=C(N[C@@H](CO)c1ccccc1)c1n[nH]c2c1CCCC/C2=C\c1ccc(Cl)cc1` [Cpd 234, (8E)-8-(4-chloro-benzylidene)-1,4,5,6,7,8-hexahydro-cycloheptapyrazole-3-carboxylic acid [(1R)-2-hydroxy-1-phenyl-ethyl]-amide], for which the half-maximal inhibitory concentration (IC50) on CB2 receptor [3] was 60 nM; on CB1 receptor [4], 20 nM. Besides, the inhibition at 0.2 µM on CB2 receptor [3] amounted to 93%; at CB1 receptor [4] (setting [8]) it was 87%. Besides, the results for the EC50 at CB1 receptor [1] (setting [5]) and on CB2 receptor [2] (setting [6]) were 8 nM and 5 nM, respectively.

As to `COC(=O)[C@H](Cc1ccc(F)cc1)NC(=O)c1n[nH]c2c1CCCC/C2=C\c1ccc(Cl)cc1` [Cpd 238, (8E)-(2S)-2-{[8-(4-chloro-benzylidene)-1,4,5,6,7,8-hexahydro-cycloheptapyrazole-3-carbonyl]-amino}-3-(4-fluoro-phenyl)-propionic acid methyl ester], the results for the concentration for half-maximal inhibition (IC50) at CB2 receptor [3] and on CB1 receptor [4] were 10 nM and 30 nM, respectively. For the same molecule, the inhibition at 0.2 µM was determined as 93% on CB2 receptor [3] and 85% on CB1 receptor [4] (setting [8]). Also, the concentration for a half-maximal effect (EC50) on CB1 receptor [1] (setting [5]) is 150 nM; on CB2 receptor [2] (setting [6]) it was 1 nM.

With `O=C(N[C@@H](CO)c1ccccc1)c1n[nH]c2c1CCCC/C2=C\c1cccc(Cl)c1` [Cpd 239, (8E)-8-(3-chloro-benzylidene)-1,4,5,6,7,8-hexahydro-cycloheptapyrazole-3-carboxylic acid [(1R)-2-hydroxy-1-phenyl-ethyl]-amide], the IC50 at CB2 receptor [3] is 20 nM; at CB1 receptor [4], 30 nM. For the same molecule, the results for the inhibition at 0.2 µM on CB2 receptor [3] and at CB1 receptor [4] (setting [8]) were 91% and 80%, respectively. Moreover, the figures for the EC50 at CB1 receptor [1] (setting [5]) and on CB2 receptor [2] (setting [6]) were 20 nM and 0.6 nM, respectively.

As for `COC(=O)[C@H](Cc1ccc(F)cc1)NC(=O)c1n[nH]c2c1CCCC/C2=C\c1cccc(Cl)c1` [Cpd 240, (8E)-(2S)-2-{[8-(3-chloro-benzylidene)-1,4,5,6,7,8-hexahydro-cycloheptapyrazole-3-carbonyl]-amino}-3-(4-fluoro-phenyl)-propionic acid methyl ester], the figures for the IC50 at CB2 receptor [3] and on CB1 receptor [4] were 40 nM and 200 nM, respectively. Further, the inhibition at 0.2 µM at CB2 receptor [3] worked out at 78%; on CB1 receptor [4] (setting [8]) it was 35%. In addition, the EC50 was found to be 1600 nM on CB1 receptor [1] (setting [5]) and 13 nM at CB2 receptor [2] (setting [6]).

`Cn1nc(C(=O)N[C@H](CCO)c2ccccc2)c2c1/C(=C/c1cccc(F)c1)CCCC2` [Cpd 249, (8E)-8-(3-fluoro-benzylidene)-1-methyl-1,4,5,6,7,8-hexahydro-cycloheptapyrazole-3-carboxylic acid [(1R)-3-hydroxy-1-phenyl-propyl]-amide]: the EC50 at CB1 receptor [1] (setting [5]) is > 5000 nM; at CB2 receptor [2] (setting [6]) it was 47 nM.

For the molecule `O=C(N[C@H](CCO)c1ccccc1)c1n[nH]c2c1CCCC/C2=C\c1cccc(Cl)c1` [Cpd 250, (8E)-8-(3-chloro-benzylidene)-1,4,5,6,7,8-hexahydro-cycloheptapyrazole-3-carboxylic acid [(1R)-3-hydroxy-1-phenyl-propyl]-amide], the 50% effective concentration (EC50) on CB1 receptor [1] (SK-N-MC cells, forskolin induced β-galactosidase activity, read-out: CB1 Receptor Functional Agonist EC50) was > 5000 nM; on CB2 receptor [2] (forskolin induced β-galactosidase activity, read-out: CB2 Receptor Functional Agonist EC50) it was 130 nM.

The values are drawn from patent US8378117B2 (priority 2005, dated 2013).
